# Assay results as given in patent US10689381B2 (priority 2017, dated 2020).
# Like-named read-outs stand apart in the source and are kept apart here.
# Legend:
# [1] = system: L1210; test: cells; format: cell-based, mouse
# Summary of the method: (§1)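 Compound exposure ran 72 h at six concentrations (0–1000 nM or 0–10000 nM, duplicate) on cells plated at 30,000 cells/mL in 10% FBS DMEM. A closing 37 °C incubation took 15 min (HCT116) or 5 min (L1210).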
# [2] = system: HCT116; test: cells; format: cell-based, human; settings: for IC50: read-out: IC50 HCT116
# Summary of the method: as §1
Compound,IC50 ([1]; Table 2) [nM],IC50 ([2]; Table 2) [nM],further results
CC[C@]1(NC(=O)C(C)C)C[C@H]2CN(CCc3c([nH]c4ccccc34)[C@@](C(=O)OC)(c3cc4c(cc3OC)N(C)[C@H]3[C@@](O)(C(=O)OC)[C@H](OC(C)=O)[C@]5(CC)C=CCN6CC[C@]43[C@@H]65)C2)C1 [Compound 13],–,–,IC50 ([1]; Table 1): 70 nM; IC50 ([2]; Table 1): 90 nM
CCOc1ccc(C(=O)N[C@@]2(CC)C[C@H]3CN(CCc4c([nH]c5ccccc45)[C@@](C(=O)OC)(c4cc5c(cc4OC)N(C)[C@H]4[C@@](O)(C(=O)OC)[C@H](OC(C)=O)[C@]6(CC)C=CCN7CC[C@]54[C@@H]76)C3)C2)cc1Cl [Compound 94],4.2,6.1,–
CCC1(NC(=O)c2cccc(C(C)C)c2)CC2CN(CCc3c([nH]c4ccccc34)C(C(=O)OC)(c3cc4c(cc3OC)N(C)C3C(O)(C(=O)OC)C(OC(C)=O)C5(CC)C=CCN6CCC43C65)C2)C1 (stereo not shown) [Compound 33],7.5,8.7,–
CCC1(NC(=O)c2ccc(OC)cc2)CC2CN(CCc3c([nH]c4ccccc34)C(C(=O)OC)(c3cc4c(cc3OC)N(C)C3C(O)(C(=O)OC)C(OC(C)=O)C5(CC)C=CCN6CCC43C65)C2)C1 (stereo not shown) [Compound 67],0.25,0.3,–
CC[C@]1(NC(=O)/C=C/c2ccccn2)C[C@H]2CN(CCc3c([nH]c4ccccc34)[C@@](C(=O)OC)(c3cc4c(cc3OC)N(C)[C@H]3[C@@](O)(C(=O)OC)[C@H](OC(C)=O)[C@]5(CC)C=CCN6CC[C@]43[C@@H]65)C2)C1 [Compound 111],–,–,IC50 ([1]; Table 3): 0.7 nM; IC50 ([2]; Table 3): 0.7 nM
CC[C@]1(NC(=O)c2cc(C)cc(C)c2)C[C@H]2CN(CCc3c([nH]c4ccccc34)[C@@](C(=O)OC)(c3cc4c(cc3OC)N(C)[C@H]3[C@@](O)(C(=O)OC)[C@H](OC(C)=O)[C@]5(CC)C=CCN6CC[C@]43[C@@H]65)C2)C1 [Compound 29],5.4,6,–
CCC1(NC(=O)c2nc3ccccc3s2)CC2CN(CCc3c([nH]c4ccccc34)C(C(=O)OC)(c3cc4c(cc3OC)N(C)C3C(O)(C(=O)OC)C(OC(C)=O)C5(CC)C=CCN6CCC43C65)C2)C1 (stereo not shown) [Compound 172],–,–,IC50 ([1]; Table 6): 180 nM; IC50 ([2]; Table 6): 80 nM
CC[C@]1(NC(=O)c2ccc(Cl)c(Cl)c2)C[C@H]2CN(CCc3c([nH]c4ccccc34)[C@@](C(=O)OC)(c3cc4c(cc3OC)N(C)[C@H]3[C@@](O)(C(=O)OC)[C@H](OC(C)=O)[C@]5(CC)C=CCN6CC[C@]43[C@@H]65)C2)C1 [Compound 50],8.5,8.7,–
CC[C@]1(NC(=O)c2ccc(C(C)(C)C)cc2)C[C@H]2CN(CCc3c([nH]c4ccccc34)[C@@](C(=O)OC)(c3cc4c(cc3OC)N(C)[C@H]3[C@@](O)(C(=O)OC)[C@H](OC(C)=O)[C@]5(CC)C=CCN6CC[C@]43[C@@H]65)C2)C1 [Compound 38],0.6,1.9,–
CCC1(NC(=O)c2cnc3ccccc3c2)CC2CN(CCc3c([nH]c4ccccc34)C(C(=O)OC)(c3cc4c(cc3OC)N(C)C3C(O)(C(=O)OC)C(OC(C)=O)C5(CC)C=CCN6CCC43C65)C2)C1 (stereo not shown) [Compound 151],–,–,IC50 ([1]; Table 6): 0.7 nM; IC50 ([2]; Table 6): 0.6 nM
CC[C@]1(NC(=O)c2cnccn2)C[C@H]2CN(CCc3c([nH]c4ccccc34)[C@@](C(=O)OC)(c3cc4c(cc3OC)N(C)[C@H]3[C@@](O)(C(=O)OC)[C@H](OC(C)=O)[C@]5(CC)C=CCN6CC[C@]43[C@@H]65)C2)C1 [Compound 131],–,–,IC50 ([1]; Table 5): 40 nM; IC50 ([2]; Table 5): 20 nM
CC[C@]1(NC(=O)c2ccc(Br)cc2)C[C@H]2CN(CCc3c([nH]c4ccccc34)[C@@](C(=O)OC)(c3cc4c(cc3OC)N(C)[C@H]3[C@@](O)(C(=O)OC)[C@H](OC(C)=O)[C@]5(CC)C=CCN6CC[C@]43[C@@H]65)C2)C1 [Compound 51],2.7,1.4,–
CC[C@]1(NC(=O)c2ccc3scnc3c2)C[C@H]2CN(CCc3c([nH]c4ccccc34)[C@@](C(=O)OC)(c3cc4c(cc3OC)N(C)[C@H]3[C@@](O)(C(=O)OC)[C@H](OC(C)=O)[C@]5(CC)C=CCN6CC[C@]43[C@@H]65)C2)C1 [Compound 171],–,–,IC50 ([1]; Table 6): 0.6 nM; IC50 ([2]; Table 6): 0.7 nM
CC[C@]1(NC(=O)c2cc(OC)c(OC)c(OC)c2)C[C@H]2CN(CCc3c([nH]c4ccccc34)[C@@](C(=O)OC)(c3cc4c(cc3OC)N(C)[C@H]3[C@@](O)(C(=O)OC)[C@H](OC(C)=O)[C@]5(CC)C=CCN6CC[C@]43[C@@H]65)C2)C1 [Compound 71],0.09,0.1,–
CC[C@]1(NC(=O)c2cccc(Br)c2)C[C@H]2CN(CCc3c([nH]c4ccccc34)[C@@](C(=O)OC)(c3cc4c(cc3OC)N(C)[C@H]3[C@@](O)(C(=O)OC)[C@H](OC(C)=O)[C@]5(CC)C=CCN6CC[C@]43[C@@H]65)C2)C1 [Compound 52],5,6.3,–
CCC1(NC(=O)c2ccc(C)c(OC)c2)CC2CN(CCc3c([nH]c4ccccc34)C(C(=O)OC)(c3cc4c(cc3OC)N(C)C3C(O)(C(=O)OC)C(OC(C)=O)C5(CC)C=CCN6CCC43C65)C2)C1 (stereo not shown) [Compound 98],4.2,3.3,–
CCC1(NC(=O)C2CCOCC2)CC2CN(CCc3c([nH]c4ccccc34)C(C(=O)OC)(c3cc4c(cc3OC)N(C)C3C(O)(C(=O)OC)C(OC(C)=O)C5(CC)C=CCN6CCC43C65)C2)C1 (stereo not shown) [Compound 144],–,–,IC50 ([1]; Table 5): 70 nM; IC50 ([2]; Table 5): 35 nM
CCC1(NC(=O)c2ccc(Oc3ccccc3)cc2)CC2CN(CCc3c([nH]c4ccccc34)C(C(=O)OC)(c3cc4c(cc3OC)N(C)C3C(O)(C(=O)OC)C(OC(C)=O)C5(CC)C=CCN6CCC43C65)C2)C1 (stereo not shown) [Compound 76],5.2,6.5,–
CCC1(NC(=O)c2cccc(SC)c2)CC2CN(CCc3c([nH]c4ccccc34)C(C(=O)OC)(c3cc4c(cc3OC)N(C)C3C(O)(C(=O)OC)C(OC(C)=O)C5(CC)C=CCN6CCC43C65)C2)C1 (stereo not shown) [Compound 85],5.4,2.3,–
CCC1(NC(=O)c2cncs2)CC2CN(CCc3c([nH]c4ccccc34)C(C(=O)OC)(c3cc4c(cc3OC)N(C)C3C(O)(C(=O)OC)C(OC(C)=O)C5(CC)C=CCN6CCC43C65)C2)C1 (stereo not shown) [Compound 140],–,–,IC50 ([1]; Table 5): 1.8 nM; IC50 ([2]; Table 5): 0.6 nM
CCC1(NC(=O)c2ccc(-c3ccccc3)cc2)CC2CN(CCc3c([nH]c4ccccc34)C(C(=O)OC)(c3cc4c(cc3OC)N(C)C3C(O)(C(=O)OC)C(OC(C)=O)C5(CC)C=CCN6CCC43C65)C2)C1 (stereo not shown) [Compound 42],5.5,5.4,–
CCC1(NC(=O)c2ccon2)CC2CN(CCc3c([nH]c4ccccc34)C(C(=O)OC)(c3cc4c(cc3OC)N(C)C3C(O)(C(=O)OC)C(OC(C)=O)C5(CC)C=CCN6CCC43C65)C2)C1 (stereo not shown) [Compound 143],–,–,IC50 ([1]; Table 5): 4.5 nM; IC50 ([2]; Table 5): 7 nM
CC[C@]1(NC(=O)c2ccccc2Cl)C[C@H]2CN(CCc3c([nH]c4ccccc34)[C@@](C(=O)OC)(c3cc4c(cc3OC)N(C)[C@H]3[C@@](O)(C(=O)OC)[C@H](OC(C)=O)[C@]5(CC)C=CCN6CC[C@]43[C@@H]65)C2)C1 [Compound 49],50,55,–
CCOc1ccc(C(=O)NC2(CC)CC3CN(CCc4c([nH]c5ccccc45)C(C(=O)OC)(c4cc5c(cc4OC)N(C)C4C(O)(C(=O)OC)C(OC(C)=O)C6(CC)C=CCN7CCC54C76)C3)C2)cc1 (stereo not shown) [Compound 72],0.6,0.6,potency relative to vinblastine (more potent) ([2]; vinblastine-sensitive cell lines): 10 fold
